Tests used:
[1] = system: experimental model of non-insulin-dependent diabetes induced in the rat by streptozotocin; assay: Study of the antidiabetic activity in the rat (glycaemia, oral route); assay type: in vivo; conditions: diabetic rats 8 weeks old; for % of glycaemia at D1 (percentage of change in the glycaemia with respect to D0): after treatment for 1 day; for % of glycaemia at D4 (percentage of change in the glycaemia with respect to D0): after treatment for 4 days
Method: The antidiabetic activity of the compounds of formula I by the oral route was determined on an experimental model of non-insulin-dependent diabetes induced in the rat by streptozotocin.
The model of non-insulin-dependent diabetes is obtained in the rat by a neonatal injection (on the day of birth) of streptozotocin.
The diabetic rats used are 8 weeks old. The animals are kept, from the day of their birth to the day of the experiment, in an animal house at a regulated temperature of 21 to 22° C. and are subjected to a fixed cycle of light (from 7 h to 19 h) and of darkness (from 19 h to 7 h). Their diet consisted of a maintenance diet; water and food were provided “ad libitum”, with the exception of the 2 hours of fasting preceding the tests, where food is withdrawn (post-absorptive state).
The rats are treated by the oral route, during the day, with the test product. Two hours after the final administration of the product and 30 minutes after anaesthetizing the animals with sodium pentobarbital (Nembutal®), a 300-μl blood sample is withdrawn at the end of the tail in order to determine the glycaemia.
at D1 (after treatment for 1 day) with respect to D0 (before treatment); and
at D4 (after treatment for 4 days) with respect to D0 (before treatment) for 2 different administration doses (20 mg/kg/day and 200 mg/kg/day) of active principle.

[2] = system: experimental model of non-insulin-dependent diabetes induced in the rat by streptozotocin; assay: Study of the hypolipidaemic activity in the rat (total cholesterol, total triglycerides); assay type: in vivo; conditions: oral route for 7 days, sample 18 h after final administration, diabetic rats 6 months old
Method: The hypolipidaemic activity of the compounds of formula I by the oral route was determined on an experimental model of non-insulin-dependent diabetes induced in the rat by streptozotocin.
The model of non-insulin-dependent diabetes is obtained in the rats by a neonatal injection (5 days after birth) of streptozotocin.
The diabetic rats used are 6 months old. The animals are kept, from the day of their birth to the day of the experiment, in an animal house at a regulated temperature of 21 to 22° C. and are subjected to a fixed cycle of light (from 7 h to 19 h) and of darkness (from 19 h to 7 h).
Their diet consisted of a maintenance diet; water and food were provided “ab [sic] libitum”, with the exception of the 18 hours of fasting preceding the withdrawals of the blood samples on which the lipid balances will be carried out.
The rats are treated by the oral route with the compound of Example 1 for 7 days. A 300-μl sample is withdrawn 18 h after the final administration of this compound.
The total cholesterol was quantitatively determined by the CHOE/CHOD/POD Trinder method as an end point (Instrumentation Laboratory reagent [lacuna] on a Monarch plus analyser (Instrumentation Laboratory).
The total triglycerides were quantitatively determined by the GPO/Trinder method as an end point (Sigma Diagnostic reagent) on a Monarch analyser (Instrumentation Laboratory).

**Q.** Which “% of glycaemia at D1 (percentage of change in the glycaemia with respect to D0)” value ([1]; 20 mg/kg/day) does the source give for COc1cccc(N2CCN(CCOc3ccc(CC(=O)O)cc3)CC2)c1 [Example 1, (4-{2-[4-(3-methoxyphenyl)-piperazin-1-yl]ethoxy}phenyl) acetic acid] here?
**A.** −8%

**Q.** And the “% of glycaemia at D4 (percentage of change in the glycaemia with respect to D0)” value ([1]; 20 mg/kg/day)?
**A.** −10%

**Q.** What about the “% of glycaemia at D1 (percentage of change in the glycaemia with respect to D0)” value ([1]; 200 mg/kg/day) of the same compound?
**A.** −24%

**Q.** And the “% of glycaemia at D4 (percentage of change in the glycaemia with respect to D0)” value ([1]; 200 mg/kg/day)?
**A.** −34%

**Q.** What about the “TOTAL CHOLESTEROL” value ([2]; in the absence of treatment 90) of the same compound?
**A.** 79 mg/dL

**Q.** And the “TOTAL TRIGLYCERIDES” value ([2]; in the absence of treatment 167)?
**A.** 102 mg/dL

**Q.** And the melting point?
**A.** 158 to 160 °C

Reference: US6376495B1, “Antidiabetic piperazine derivatives, processes for their preparation and compositions containing them” (Merck Patent Gesellschaft, priority 1998, dated 2002)
